Data published in patent US10093713B2, “GIP-GLP-1 dual agonist compounds and methods” (priority 2013, dated 2018).
Where two headings read alike, the source gives them in different places. *1 amine or outer side, *2 acyl side, *3 side chain or, on linkers, in order; H or OH if unused. Where a SMILES comes first, the peptide text is derived from it. Side-chain parts run from the residue outwards. [ ]: non-standard residue; d: D form. The star is where a group is joined. C20 diacid = O=C(O)CCCCCCCCCCCCCCCCCCC(=O)*; C18 diacid = O=C(O)CCCCCCCCCCCCCCCCC(=O)*; γGlu = O=C(O)[C@H](CCC(=O)[*:2])N[*:1]; AEEA = NCCOCCOCC(=O)O; Aib = CC(C)(N)C(=O)O

How the values were obtained:
human GIP R = biological target: T1, human GIP R (Homo sapiens, UniProt P48546); assay: Human GIP receptor (GIP R) activity assay, cAMP induction (AlphaScreen) in HEK293 cells; type: cell-based; details: read-out: hGIP-R cAMP EC50 average value
T1 construct: expressed in transfected cells
T1 sequence (P48546 22-466): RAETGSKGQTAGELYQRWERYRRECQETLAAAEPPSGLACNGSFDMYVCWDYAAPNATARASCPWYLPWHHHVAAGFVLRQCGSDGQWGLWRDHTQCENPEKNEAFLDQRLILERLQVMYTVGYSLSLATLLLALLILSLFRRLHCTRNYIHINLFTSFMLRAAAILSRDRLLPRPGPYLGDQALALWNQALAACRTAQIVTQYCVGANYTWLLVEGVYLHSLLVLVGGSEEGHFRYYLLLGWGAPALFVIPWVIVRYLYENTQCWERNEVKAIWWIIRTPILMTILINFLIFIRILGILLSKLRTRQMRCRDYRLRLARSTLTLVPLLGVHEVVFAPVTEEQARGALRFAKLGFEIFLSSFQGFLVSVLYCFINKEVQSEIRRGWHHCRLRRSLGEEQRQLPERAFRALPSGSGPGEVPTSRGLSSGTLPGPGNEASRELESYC
Method in brief: (§1)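 Stable HEK293 clones expressing human GIP R or GLP-1 R, seeded 1 day before; cells washed in Tyrode's buffer (10 mM HEPES, pH 7.4), stimulated, then lysed. cAMP measured by AlphaScreen bead competition (1 h, room temperature, dark). EC50 = concentration giving half-maximal cAMP elevation, from curves of absolute cAMP (nM) vs log concentration.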

human GLP-1 R = biological target: T2, human GLP-1 R (Homo sapiens, UniProt P43220); assay: Human GLP-1 receptor (GLP-1 R) activity assay, cAMP induction (AlphaScreen) in HEK293 cells; type: cell-based
T2 construct: expressed in transfected cells
Method in brief: as §1

[1] = Table 2a, secondary assay study
[2] = Table 2a, secondary assay study, read-out: hGLP1-R cAMP EC50 average value
[3] = Table 3, most comprehensive data
[4] = Table 3, most comprehensive data, read-out: hGLP-1-R cAMP EC50 average value

T2 sequence (P43220 24-463): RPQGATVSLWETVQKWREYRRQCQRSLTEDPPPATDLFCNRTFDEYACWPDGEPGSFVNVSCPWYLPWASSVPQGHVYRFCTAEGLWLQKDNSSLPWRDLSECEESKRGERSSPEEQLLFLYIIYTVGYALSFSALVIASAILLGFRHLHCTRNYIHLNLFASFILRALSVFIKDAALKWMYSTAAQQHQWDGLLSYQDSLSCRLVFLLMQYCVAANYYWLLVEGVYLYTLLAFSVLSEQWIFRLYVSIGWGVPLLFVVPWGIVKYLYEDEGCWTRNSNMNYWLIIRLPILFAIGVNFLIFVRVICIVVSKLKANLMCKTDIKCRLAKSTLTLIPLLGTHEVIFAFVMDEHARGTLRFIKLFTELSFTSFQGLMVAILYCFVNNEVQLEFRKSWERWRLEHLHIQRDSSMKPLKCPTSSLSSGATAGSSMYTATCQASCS

SMILES | EC50 (human GIP R; [1]) | EC50 (human GLP-1 R; [2]) | EC50 (human GIP R; [3]) | EC50 (human GLP-1 R; [4]) | EC50 (human GIP R; Table 2, HEK293 cells expressing human GIP R) | EC50 (human GLP-1 R; Table 2, HEK293 cells expressing human GLP-1 R, read-out: hGLP1-R cAMP EC50 average value)
CC[C@H](C)[C@H](NC(=O)[C@H](CO)NC(=O)[C@H](Cc1ccc(O)cc1)NC(=O)[C@H](CC(=O)O)NC(=O)[C@H](CO)NC(=O)[C@@H](NC(=O)[C@H](Cc1ccccc1)NC(=O)[C@@H](NC(=O)CNC(=O)[C@H](CCC(=O)O)NC(=O)C(C)(C)NC(=O)[C@@H](N)Cc1ccc(O)cc1)[C@@H](C)O)[C@@H](C)O)C(=O)N[C@@H](C)C(=O)N[C@@H](CC(C)C)C(=O)N[C@@H](CC(=O)O)C(=O)N[C@@H](CCCCN)C(=O)N[C@@H](CCCCNC(=O)COCCOCCNC(=O)COCCOCCNC(=O)CC[C@H](NC(=O)CCCCCCCCCCCCCCCCCCC(=O)O)C(=O)O)C(=O)N[C@@H](C)C(=O)N[C@@H](CCC(N)=O)C(=O)N[C@@H](CCCNC(=N)N)C(=O)N[C@@H](C)C(=O)N[C@@H](Cc1ccccc1)C(=O)N[C@H](C(=O)N[C@@H](CC(N)=O)C(=O)N[C@@H](Cc1c[nH]c2ccccc12)C(=O)N[C@@H](CC(C)C)C(=O)N[C@H](C(=O)N[C@@H](C)C(=O)NC(C)(C)C(=O)N[C@@H](CCCCN)C(=O)N1CCC[C@H]1C(=O)N[C@@H](CO)C(=O)N[C@@H](CO)C(=O)NCC(=O)N[C@@H](C)C(=O)N1CCC[C@H]1C(=O)N1CCC[C@H]1C(=O)N1CCC[C@H]1C(=O)N[C@@H](CO)C(N)=O)C(C)C)C(C)C [Compound 16] | 8 pM | 0.009 nM | – | – | – | –
CC[C@H](C)[C@H](NC(=O)[C@H](CO)NC(=O)[C@H](Cc1ccc(O)cc1)NC(=O)[C@H](CC(=O)O)NC(=O)[C@H](CO)NC(=O)[C@@H](NC(=O)[C@H](Cc1ccccc1)NC(=O)[C@@H](NC(=O)CNC(=O)[C@H](CCC(=O)O)NC(=O)C(C)(C)NC(=O)[C@@H](N)Cc1ccc(O)cc1)[C@@H](C)O)[C@@H](C)O)C(=O)N[C@@H](C)C(=O)N[C@@H](CC(C)C)C(=O)N[C@@H](CCC(=O)O)C(=O)N[C@@H](CCCCN)C(=O)N[C@@H](CCCCNC(=O)COCCOCCNC(=O)COCCOCCNC(=O)CC[C@H](NC(=O)CCCCCCCCCCCCCCCCC(=O)O)C(=O)O)C(=O)N[C@@H](C)C(=O)N[C@@H](CCC(N)=O)C(=O)N[C@@H](CCCNC(=N)N)C(=O)N[C@@H](C)C(=O)N[C@@H](Cc1ccccc1)C(=O)N[C@H](C(=O)N[C@@H](CCC(=O)O)C(=O)N[C@@H](Cc1c[nH]c2ccccc12)C(=O)N[C@@H](CC(C)C)C(=O)N[C@@H](CC(C)C)C(=O)N[C@@H](C)C(=O)N[C@@H](CCC(N)=O)C(=O)N[C@@H](CCCCN)C(N)=O)C(C)C [Compound 17] (H-Y[Aib]EGTFTSDYSIALEKK([AEEA-AEEA-γGlu-C18 diacid])AQRAFVEWLLAQK-NH2) | 8 pM | 0.015 nM | – | – | – | –
CC[C@H](C)[C@H](NC(=O)[C@H](CO)NC(=O)[C@H](Cc1ccc(O)cc1)NC(=O)[C@H](CC(=O)O)NC(=O)[C@H](CO)NC(=O)[C@@H](NC(=O)[C@H](Cc1ccccc1)NC(=O)[C@@H](NC(=O)CNC(=O)[C@H](CCC(=O)O)NC(=O)C(C)(C)NC(=O)[C@@H](N)Cc1ccc(O)cc1)[C@@H](C)O)[C@@H](C)O)C(=O)N[C@@H](C)C(=O)N[C@@H](CC(C)C)C(=O)N[C@@H](CC(=O)O)C(=O)N[C@@H](CCCCN)C(=O)N[C@@H](CCCCNC(=O)COCCOCCNC(=O)COCCOCCNC(=O)CC[C@H](NC(=O)CCCCCCCCCCCCCCCCCCC(=O)O)C(=O)O)C(=O)N[C@@H](C)C(=O)N[C@@H](CCC(N)=O)C(=O)N[C@@H](CCCNC(=N)N)C(=O)N[C@@H](C)C(=O)N[C@@H](Cc1ccccc1)C(=O)N[C@H](C(=O)N[C@@H](CCC(=O)O)C(=O)N[C@@H](Cc1c[nH]c2ccccc12)C(=O)N[C@@H](CC(C)C)C(=O)N[C@@H](CC(C)C)C(=O)N[C@@H](C)C(=O)N[C@@H](CCC(N)=O)C(=O)NCC(=O)N1CCC[C@H]1C(=O)N[C@@H](CO)C(=O)N[C@@H](CO)C(=O)NCC(=O)N[C@@H](C)C(=O)N1CCC[C@H]1C(=O)N1CCC[C@H]1C(=O)N1CCC[C@H]1C(=O)N[C@@H](CO)C(N)=O)C(C)C [Compound 42] (H-Y[Aib]EGTFTSDYSIALDKK([AEEA-AEEA-γGlu-C20 diacid])AQRAFVEWLLAQGPSSGAPPPS-NH2) | – | – | 9 pM | 0.017 nM | – | –
CC[C@H](C)[C@H](NC(=O)[C@H](CO)NC(=O)[C@H](Cc1ccc(O)cc1)NC(=O)[C@H](CC(=O)O)NC(=O)[C@H](CO)NC(=O)[C@@H](NC(=O)[C@H](Cc1ccccc1)NC(=O)[C@@H](NC(=O)CNC(=O)[C@H](CCC(=O)O)NC(=O)C(C)(C)NC(=O)[C@@H](N)Cc1ccc(O)cc1)[C@@H](C)O)[C@@H](C)O)C(=O)N[C@@H](C)C(=O)N[C@@H](CC(C)C)C(=O)N[C@@H](CC(=O)O)C(=O)N[C@@H](CCCCN)C(=O)N[C@@H](CCCCNC(=O)COCCOCCNC(=O)COCCOCCNC(=O)CC[C@H](NC(=O)CCCCCCCCCCCCCCCCCCC(=O)O)C(=O)O)C(=O)N[C@@H](C)C(=O)N[C@@H](CCC(N)=O)C(=O)N[C@@H](CCCNC(=N)N)C(=O)N[C@@H](C)C(=O)N[C@@H](Cc1ccccc1)C(=O)N[C@H](C(=O)N[C@@H](CCC(=O)O)C(=O)N[C@@H](Cc1c[nH]c2ccccc12)C(=O)N[C@@H](CC(C)C)C(=O)N[C@@H](CC(C)C)C(=O)N[C@@H](C)C(=O)N[C@@H](CCC(N)=O)C(=O)N[C@@H](CCCCN)C(=O)N1CCC[C@H]1C(=O)N[C@@H](CO)C(=O)N[C@@H](CO)C(=O)NCC(=O)N[C@@H](C)C(=O)N1CCC[C@H]1C(=O)N1CCC[C@H]1C(=O)N1CCC[C@H]1C(=O)N[C@@H](CO)C(N)=O)C(C)C [Compound 38] (H-Y[Aib]EGTFTSDYSIALDKK([AEEA-AEEA-γGlu-C20 diacid])AQRAFVEWLLAQKPSSGAPPPS-NH2) | – | – | 5 pM | 0.012 nM | – | –
CC[C@H](C)[C@H](NC(=O)[C@H](CO)NC(=O)[C@H](Cc1ccc(O)cc1)NC(=O)[C@H](CC(=O)O)NC(=O)[C@H](CO)NC(=O)[C@@H](NC(=O)[C@H](Cc1ccccc1)NC(=O)[C@@H](NC(=O)CNC(=O)[C@H](CCC(=O)O)NC(=O)C(C)(C)NC(=O)[C@@H](N)Cc1ccc(O)cc1)[C@@H](C)O)[C@@H](C)O)C(=O)NC(C)(C)C(=O)N[C@@H](CC(C)C)C(=O)N[C@@H](CC(=O)O)C(=O)N[C@@H](CCCCN)C(=O)N[C@@H](CCCCNC(=O)COCCOCCNC(=O)COCCOCCNC(=O)CC[C@H](NC(=O)CCCCCCCCCCCCCCCCC(=O)O)C(=O)O)C(=O)N[C@@H](C)C(=O)N[C@@H](CCC(N)=O)C(=O)N[C@@H](CCCNC(=N)N)C(=O)N[C@@H](C)C(=O)N[C@@H](Cc1ccccc1)C(=O)N[C@H](C(=O)N[C@@H](CCC(=O)O)C(=O)N[C@@H](Cc1c[nH]c2ccccc12)C(=O)N[C@@H](CC(C)C)C(=O)N[C@@H](CC(C)C)C(=O)N[C@@H](C)C(=O)N[C@@H](CCC(N)=O)C(=O)NCC(=O)N1CCC[C@H]1C(=O)N[C@@H](CO)C(=O)N[C@@H](CO)C(=O)NCC(=O)N[C@@H](C)C(=O)N1CCC[C@H]1C(=O)N1CCC[C@H]1C(=O)N1CCC[C@H]1C(=O)N[C@@H](CO)C(N)=O)C(C)C [Compound 11] (H-Y[Aib]EGTFTSDYSI[Aib]LDKK([AEEA-AEEA-γGlu-C18 diacid])AQRAFVEWLLAQGPSSGAPPPS-NH2) | 5 pM | 0.013 nM | 5 pM | – | 4.7 pM | 0.013 nM
CC[C@H](C)[C@H](NC(=O)[C@H](CO)NC(=O)[C@H](Cc1ccc(O)cc1)NC(=O)[C@H](CC(=O)O)NC(=O)[C@H](CO)NC(=O)[C@@H](NC(=O)[C@H](Cc1ccccc1)NC(=O)[C@@H](NC(=O)CNC(=O)[C@H](CCC(=O)O)NC(=O)[C@@H](C)NC(=O)[C@@H](N)Cc1ccc(O)cc1)[C@@H](C)O)[C@@H](C)O)C(=O)N[C@@H](C)C(=O)N[C@@H](CC(C)C)C(=O)N[C@@H](CC(=O)O)C(=O)N[C@@H](CCCCN)C(=O)N[C@@H](CCCCNC(=O)COCCOCCNC(=O)COCCOCCNC(=O)CC[C@H](NC(=O)CCCCCCCCCCCCCCCCCCC(=O)O)C(=O)O)C(=O)N[C@@H](C)C(=O)N[C@@H](CCC(N)=O)C(=O)N[C@@H](CCCNC(=N)N)C(=O)N[C@@H](C)C(=O)N[C@@H](Cc1ccccc1)C(=O)N[C@H](C(=O)N[C@@H](CCC(=O)O)C(=O)N[C@@H](Cc1c[nH]c2ccccc12)C(=O)N[C@@H](CC(C)C)C(=O)N[C@@H](CC(C)C)C(=O)N[C@@H](C)C(=O)N[C@@H](CCC(N)=O)C(=O)N[C@@H](CCCCN)C(=O)N1CCC[C@H]1C(=O)N[C@@H](CO)C(=O)N[C@@H](CO)C(=O)NCC(=O)N[C@@H](C)C(=O)N1CCC[C@H]1C(=O)N1CCC[C@H]1C(=O)N1CCC[C@H]1C(=O)N[C@@H](CO)C(N)=O)C(C)C [Compound 39] (H-Y[dA]EGTFTSDYSIALDKK([AEEA-AEEA-γGlu-C20 diacid])AQRAFVEWLLAQKPSSGAPPPS-NH2) | – | – | 11 pM | 0.006 nM | – | –
